Consider four compounds from patent US6844352B2, “1′-[4-[1-(4-fluorophenyl)-1H-indole-3-yl]-1-butyl]-spiro[isobenzofuran-1(3H),4′-piperidine] hydrohalogenides” (H. Lundbeck A/S, priority 1997, dated 2005).

The nature of data set [1]: Bioavailability study after multiple oral administration in Beagle dogs (serum levels by HPLC). It counts as in vivo. Conditions: both sexes, dog, area under serum concentration versus time curve 0-24 hours after dosing on day 7, 10 mg/kg/day (as free base) orally in gelatine capsules for 7 days, read-out: AUC0-24.7 Mean. As to the method: After multiple administration in Beagle dogs, the bioavailability of the salts of 1′-[4-[1-(4-fluorophenyl)-1H-indole-3-yl]-1-butyl]-spiro[isobenzofuran-1(3H),4′-piperidine] was investigated as described in the following study:
Two groups, each consisting of four Beagle dogs (2 males and 2 females) were used in the study.
The dogs in the individual groups were given single daily doses of 10 mg/kg/day (calculated as free base) of the fumarate and the hydrochloride of 1′-[4-[1-(4-fluorophenyl)-1H-indole-3-yl]-1-butyl]-spiro[isobenzofuran-1(3H),4′-piperidine] for seven days.
Blood samples for serum preparation were drawn from the test animals at specific nominal time points before and after dosing on each day and analyzed using HPLC. […]
Single doses of the different salts corresponding to 10.0 mg (˜21997 nmol ) of 1′-[4-[1-(4-fluorophenyl)-1H-indole-3-yl]-1-butyl]-spiro[isobenzofuran-1(3H),4′-piperidine] per kg body weight were accurately weighed into gelatine capsules. The calculated amounts of test compound for each dog were based on body weights measured at study start. […]
The exact blood sampling times for each dog relative to the first dose were recorded. […]
The serum samples obtained were analysed for content of 1′-[4-[1-(4-fluorophenyl)-1H-indole-3-yl]-1-butyl]-spiro[isobenzofuran-1(3H),4′-piperidine] by a pseudo-normal phase HPLC-method after liquid-liquid extraction. […]

Data set [2] in a line: Bioavailability experiments in dogs. It counts as in vivo.
The next data set is described as follows: Aqueous solubility. It counts as physicochemical.
A short description of data set [3]: Bioavailability experiments in rats. It counts as in vivo.
In a further data set the test system is rats. Conditions: cited from earlier work.
Another data set relates to sigma receptors. The note with it: cited from earlier work.
In another data set the test system is sigma receptor. Conditions: cited from earlier work.

For the compound `Fc1ccc(-n2cc(CCCCN3CCC4(CC3)OCc3ccccc34)c3ccccc32)cc1.O=C(O)/C=C/C(=O)O` [Fumarate, 1′-[4-[1-(4-fluorophenyl)-1H-indole-3-yl]-1-butyl]-spiro[isobenzofuran-1(3H),4′-piperidine], fumarate], the AUC(0-t) in data set [1] stood at 4.02 µM·h. Further, the bioavailability result in data set [2] and in data set [3] was “limited bioavailablity” in each case. In addition, the aqueous solubility result in the data set “Aqueous solubility” is listed as “very low”.

For `Cl.Fc1ccc(-n2cc(CCCCN3CCC4(CC3)OCc3ccccc34)c3ccccc32)cc1` [Hydrochloride, 1′-[4-[1-(4-fluorophenyl)-1H-indole-3-yl]-1-butyl]-spiro[isobenzofuran-1(3H),4′-piperidine], hydrochloride], in data set [1], the AUC(0-t) turned out to be 12 µM·h. Moreover, the “water solubility compared to the fumarate” value in “Aqueous solubility” is “improved water solubility”.

As to `Fc1ccc(-n2cc(CCCCN3CCC4(CC3)OCc3ccccc34)c3ccccc32)cc1` [free base, 1′-[4-[1-(4-fluorophenyl)-1H-indole-3-yl]-1-butyl]-spiro[isobenzofuran-1(3H),4′-piperidine]], in the data set on rats, the “anxiolytic potential in black/white exploration test” value is reported as “active over a large dose range”. Further, the aqueous solubility result in “Aqueous solubility” is listed as “very low”. Also, the “sigma ligand potency and selectivity” value in the data set on sigma receptors was “potent and selective sigma ligand”.

For `C[C@@H]1CN(CCCn2c3ccccc3c3ccccc32)C[C@H](C)N1` [rimcazole], in the data set with sigma receptor, the “clinical effect in the treatment of psychoses” value is “clinically shows effect”.
